How the values were obtained:
[1] = tested on: lung cancer cell line LLC-luci; assay: Lung cancer tumor-bearing mouse model (C57BL/6); format: in vivo
Source text: (§1) Female C57BL/6 (6-8 weeks old) mice were purchased from Shanghai SLAC Laboratory Animal Co., Ltd.; humanized PD-1 transgenic mice were purchased from Nanjing Biomedical Research Institute of Nanjing University; and all mice were raised in SPF facilities. Mouse colon cancer cell line MC38, lung cancer cell line LLC-luci and melanoma cell line B16 were all purchased from American Type Culture Collection (ATCC). Since Treg cells can inhibit extensive antitumor immune response while promoting angiogenesis in the tumor microenvironment, to explore the in vivo influence of ursodeoxycholic acid on Treg cells, tumor-bearing models are established using mouse colon cancer cell line MC38, lung cancer cell line LLC-luci and melanoma cell line B16, with female SPF-grade C57BL/6 as the experiment subject. For better internal absorption of ursodeoxycholic acid, the above-mentioned ursodeoxycholic acid is replaced with sodium ursodeoxycholate (SANTA CRUZ BIOTECHNOLOGY, #2898-95-5). The control group and the experimental group both received injection of ddH2O and URSO (30 mg/kg) every day, with tumor size observed and recorded. […] Two weeks later, separate the tumor-infiltrating lymphocytes for analysis by flow cytometry. […]

[2] = tested on: colon cancer cell line MC38; assay: Colon cancer tumor-bearing mouse model (C57BL/6); format: in vivo
Source text: as §1

[3] = tested on: lung cancer cell line LLC; assay: Combination with anti-PD-1 antibody, lung cancer model in humanized PD-1 transgenic mice; format: in vivo, mouse; conditions: LLC subcutaneous, SHR-1210 10 mg/kg every two days, URSO 30 mg/kg every other day, vs water and humanized IgG4 (FIG. 6)
Source text: (§2) Female C57BL/6 (6-8 weeks old) mice were purchased from Shanghai SLAC Laboratory Animal Co., Ltd.; humanized PD-1 transgenic mice were purchased from Nanjing Biomedical Research Institute of Nanjing University; and all mice were raised in SPF facilities. Mouse colon cancer cell line MC38, lung cancer cell line LLC-luci and melanoma cell line B16 were all purchased from American Type Culture Collection (ATCC).
(§3) To verify whether the combined use of ursodeoxycholic acid and anti-PD-1 antibody can improve antitumor effect, colon cancer cell line MC38, melanoma cell line B16 and lung cancer cell line LLC are inoculated subcutaneously into humanized PD-1 transgenic mice, which were randomly divided into four groups when tumor volume reaches 100 mm^3. Treatment groups were treated with SHR-1210, URSO or SHR-1210 in combination with URSO, while the control groups were injected with water and humanized IgG4 (an isotype control for SHRR-1210). SHR-1210 was used every two days at a dosage of 10 mg/kg, while URSO was used every other day at 30 mg/kg, with the volume of tumor recorded each time.

melanoma cell line B16 [4] = assay: Combination with anti-PD-1 antibody, melanoma model in humanized PD-1 transgenic mice; format: in vivo, mouse; conditions: B16 subcutaneous, SHR-1210 10 mg/kg every two days, URSO 30 mg/kg every other day, vs water and humanized IgG4 (FIG. 7)
Source text: as §2, §3

[5] = tested on: colon cancer cell line MC38; assay: Combination with anti-PD-1 antibody, colon cancer model in humanized PD-1 transgenic mice; format: in vivo, mouse; conditions: MC38 subcutaneous, SHR-1210 10 mg/kg every two days, URSO 30 mg/kg every other day, vs water and humanized IgG4 (FIG. 5)
Source text: as §2, §3

melanoma cell line B16 [6] = assay: Melanoma tumor-bearing mouse model (C57BL/6); format: in vivo
Source text: as §1

[7] = tested on: Treg cell differentiation (human naïve CD4+ T cells); assay: In vitro Treg cell differentiation of human naïve CD4+ T cells, flow cytometry; format: cell-based; conditions: human naïve CD4+ T cells from healthy volunteers, CD3/CD28 activation, flow cytometry on day 4 (FIG. 8)
Procedure: To investigate the influence of ursodeoxycholic acid on humanized Treg cell differentiation, whole blood of volunteers were collected (ethics approval: approved by Medical Ethics Committee of Zhejiang University School of Medicine, Shen Lun No. 2019-013; five healthy volunteers, 10 ml peripheral venous blood each, collected by Zhejiang Medial & Health Group Hangzhou Hospital). naïve CD4+ T cells were sorted. Detailed procedures are as follows: 1. Separation of peripheral blood mononuclear cells: • (1) Fresh anticoagulant whole blood (EDTA, sodium citrate or heparin) was taken. Whole blood was diluted with isotonic solution (PBS or normal saline) of equal volume. • (2) A certain volume of separating medium (VESTA, #7111011) was added into a centrifuge tube, diluted blood sample was spread evenly on the surface of separating medium, and maintained a clear interface between two liquid surfaces. […] Sorting of human naïve CD4+ T cells: • (1) With Human naïve CD4+ T Cell Kit (STEMCELL, #19155) and the standard kit method adopted, naïve CD4+ T cells were sorted from human peripheral blood mononuclear cells, and plating was conducted according to the method in Example 1. • (2) Human T-Activator CD3/CD28 was added for T Cell Expansion and Activation (Gibco, #11161D). • (3) On day 4, Treg cell differentiation was detected by flow cytometry.

[8] = tested on: Treg cell differentiation (mouse naïve CD4+ T cells); assay: In vitro Treg cell differentiation of mouse naïve CD4+ T cells, flow cytometry; format: cell-based; conditions: 50 μM vs DMSO, anti-CD3/anti-CD28, flow cytometry on day 4 (FIG. 1)
Source text: Treg cell surface can express CD4 and CD25 molecules. In addition, it is characterized by its high expression of transcription factor Foxp3. Based on the characteristic above, flow cytometry is adopted to explore the in vitro influence of ursodeoxycholic acid on Treg cell differentiation. Detailed procedures are as follows: T cell sorting: Mouse T cells were sorted by immunomagnetic beads methods. The mice were killed by cervical dislocation, spleens and lymph nodes were taken under aseptic conditions, ground and put through a sieve, centrifuged at 400 g for 5 min, and cells were resuspended with sort buffer. The total cells were counted with 3% glacial acetic acid, and proceeded strictly following the instructions of the sorting kit. CD4 negative selection kit (EasySep™ Mouse CD4+ T Cell Isolation Kit, #19852A) and Biotin sorting kit (EasySep™ Mouse Biotin Positive Selection Kit, #18556) were used in combination for sorting naïve CD4+ T cells (CD4-positive naïve T cells). […] After sorting, when the CD4+CD62L+ purity detected by flow cytometry is greater than 95%, cells were used for further experiments. […] DMSO or ursodeoxycholic acid U5127 (SIGMA-ALDRICH, #128-13-2) was added with a concentration of 50 μM respectively, and the differentiation of Treg cells were detected by flow cytometry on day 4. […]

Molecule	tumor volume ([1]; C57BL/6 mice, 30 mg/kg injection every day, vs ddH2O control (FIG. 3A))	tumor volume ([2]; C57BL/6 mice, 30 mg/kg injection every day, vs ddH2O control (FIG. 4A))	tumor growth (tumor volume) [3]	tumor growth (tumor volume) (melanoma cell line B16 [4])	tumor growth (tumor volume) [5]	tumor volume (melanoma cell line B16 [6]; C57BL/6 mice, 30 mg/kg injection every day, vs ddH2O control (FIG. 2A))	proportion of Treg cells in tumor infiltrating lymphocytes ([1]; two weeks of treatment, flow cytometry (FIG. 3B))	differentiation of humanized endogenous Treg cells [7]	proportion of Treg cells in tumor infiltrating lymphocytes ([2]; two weeks of treatment, flow cytometry (FIG. 4B))	proportion of endogenous Treg cells [8]	proportion of Treg cells in tumor infiltrating lymphocytes (melanoma cell line B16 [6]; two weeks of treatment, flow cytometry (FIG. 2B))
C[C@H](CCC(=O)[O-])[C@H]1CC[C@H]2[C@@H]3[C@@H](O)C[C@@H]4C[C@H](O)CC[C@]4(C)[C@H]3CC[C@]12C.[Na+] [URSO, sodium ursodeoxycholate]	obviously smaller in volume	obviously smaller in volume	significantly inhibited tumor growth	significantly inhibited tumor growth	significantly inhibited tumor growth	obviously smaller in volume					
C[C@H](CCC(=O)O)[C@H]1CC[C@H]2[C@@H]3[C@@H](O)C[C@@H]4C[C@H](O)CC[C@]4(C)[C@H]3CC[C@]12C [ursodeoxycholic acid]							reduced	reduced	reduced	significantly reduced	reduced
SHR-1210: humanized anti-PD-1 antibody produced by Hengrui Medicine (antibody, chains of the INN, looked up, V domains shown) VH: EVQLVESGGGLVQPGGSLRLSCAASGFTFSSYMMSWVRQAPGKGLEWVATISGGGANTYYPDSVKGRFTISRDNAKNSLYLQMNSLRAEDTAVYYCARQLYYFDYWGQGTTVTVSS VL: DIQMTQSPSSLSASVGDRVTITCLASQTIGTWLTWYQQKPGKAPKLLIYTATSLADGVPSRFSGSGSGTDFTLTISSLQPEDFATYYCQQVYSIPWTFGGGTKVEIK			significantly inhibited tumor growth	significantly inhibited tumor growth	significantly inhibited tumor growth						

— patent US20210386762A1, “THE APPLICATION OF URSODEOXYCHOLIC ACID OR ITS PHARMACEUTICAL SALT IN THE PREPARATION OF AN ANTITUMOR DRUG AND AN ANTITUMOR DRUG” (ZHEJIANG UNIVERSITY, priority 2018, published 2021)
